One test deals with T1, BioSTING (Mus musculus, UniProt Q3TBT3).
T1 construct: FRET pair mTFP and mKO2 at L152 and E335, respectively; His tag (N); made in house; host or cells: E. coli Rosetta (DE3)pLysS
T1 sequence (Q3TBT3 152-335): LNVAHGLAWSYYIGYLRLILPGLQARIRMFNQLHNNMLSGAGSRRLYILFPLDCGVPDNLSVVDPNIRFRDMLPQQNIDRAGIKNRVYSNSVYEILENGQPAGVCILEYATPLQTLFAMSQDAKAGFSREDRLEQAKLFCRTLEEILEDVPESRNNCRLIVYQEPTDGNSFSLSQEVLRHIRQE
The experiment in a line: DRaCALA radioactive nucleotide binding assay of BioSTING. Set-up: species or system murine. As to conditions: excess (500 µM) unlabeled nucleotide.

In a further test the target is T2, STING-CTD (mSTING-CTD) (Mus musculus, UniProt Q3TBT3).
T2 construct: made in house; host or cells: E. coli Rosetta (DE3)pLysS; plasmid pET28-mSTING-CTD, gift from Russell Vance
T2 sequence (Q3TBT3 134-378 limits assumed): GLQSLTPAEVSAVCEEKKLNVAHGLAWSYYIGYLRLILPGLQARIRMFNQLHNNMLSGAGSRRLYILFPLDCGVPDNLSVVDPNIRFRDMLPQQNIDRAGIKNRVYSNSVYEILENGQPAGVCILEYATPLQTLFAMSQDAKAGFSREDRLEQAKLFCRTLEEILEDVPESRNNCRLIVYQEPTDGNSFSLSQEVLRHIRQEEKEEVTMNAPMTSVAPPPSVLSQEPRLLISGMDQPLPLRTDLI
Briefly: DRaCALA radioactive nucleotide binding assay of STING-CTD. Set-up: species or system murine. As to conditions: excess (500 µM) unlabeled nucleotide.

Consider `Nc1ncnc2c1ncn2[C@@H]1O[C@H](COP(=O)(O)OP(=O)(O)OP(=O)(O)O)[C@@H](O)[C@H]1O` [ATP], for which the “competition of bound [32P] 2ʼ3ʼ-cGAMP by unlabeled nucleotide” value (“competition of bound [32P] 2ʼ3ʼ-cGAMP” for short) on BioSTING and at STING-CTD (mSTING-CTD) was “not” each time.

For the compound `Nc1nc2c(ncn2[C@@H]2O[C@H](COP(=O)(O)OP(=O)(O)OP(=O)(O)O)[C@@H](O)[C@H]2O)c(=O)[nH]1` [GTP], the “competition of bound [32P] 2ʼ3ʼ-cGAMP” value on BioSTING and at STING-CTD (mSTING-CTD) was “not” throughout.

`Nc1nc2c(ncn2[C@@H]2O[C@@H]3COP(=O)(O)O[C@H]3[C@H]2O)c(=O)[nH]1` [cGMP]: the “competition of bound [32P] 2ʼ3ʼ-cGAMP” value at BioSTING and at STING-CTD (mSTING-CTD) was “not” each time.

Values taken from paper PMC7363834, “A STING-based biosensor affords broad cyclic dinucleotide detection within single living eukaryotic cells” (Nature Communications, 2020).
